Laboratory results: PubChem BioAssay (NCI)
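Growth conditions: 96-well plates. Treatment: test compound, 48 hours, 5 concentrations. Analysis: linear interpolation between bracketing concentrations; unreached endpoints set to highest concentration. The concentration for 50% growth inhibition is given as GI50. TGI marks complete inhibition of growth.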

Key:
Assay in all cases: DTP human tumour cell line panel, 48 h
A549 NSCLC = system: A549 NSCLC
IGROV1 ovarian = system: IGROV1 ovarian
SK-OV-3 ovarian = system: SK-OV-3 ovarian
HS 578T breast = system: HS 578T breast
RPMI-8226 leukemia = system: RPMI-8226 leukemia
HOP-62 NSCLC = system: HOP-62 NSCLC
NCI/ADR-RES ovarian = system: NCI/ADR-RES ovarian
MCF7 breast = system: MCF7 breast
UACC-257 melanoma = system: UACC-257 melanoma
HT29 colon = system: HT29 colon
OVCAR-4 ovarian = system: OVCAR-4 ovarian
A498 renal = system: A498 renal
SF-295 CNS = system: SF-295 CNS
UO-31 renal = system: UO-31 renal
SNB-19 CNS = system: SNB-19 CNS
KM12 colon = system: KM12 colon
HCT-116 colon = system: HCT-116 colon
OVCAR-3 ovarian = system: OVCAR-3 ovarian
NCI-H23 lung = system: NCI-H23 lung
T-47D breast = system: T-47D breast
OVCAR-5 ovarian = system: OVCAR-5 ovarian
PC-3 prostate = system: PC-3 prostate
M14 melanoma = system: M14 melanoma
OVCAR-8 ovarian = system: OVCAR-8 ovarian
U251 CNS = system: U251 CNS
MDA-MB-231 breast = system: MDA-MB-231 breast
SN12C renal = system: SN12C renal
SNB-75 CNS = system: SNB-75 CNS
LOX IMVI melanoma = system: LOX IMVI melanoma
SF-539 CNS = system: SF-539 CNS
K-562 leukemia = system: K-562 leukemia
ACHN renal = system: ACHN renal
CAKI-1 renal = system: CAKI-1 renal
SR leukemia = system: SR leukemia
DU-145 prostate = system: DU-145 prostate
HL-60(TB) leukemia = system: HL-60(TB) leukemia
SK-MEL-2 melanoma = system: SK-MEL-2 melanoma
SK-MEL-5 melanoma = system: SK-MEL-5 melanoma
786-0 renal = system: 786-0 renal
MOLT-4 leukemia = system: MOLT-4 leukemia
BT-549 breast = system: BT-549 breast
MDA-MB-435 = system: MDA-MB-435
SW-620 colon = system: SW-620 colon
COLO 205 colon = system: COLO 205 colon
NCI-H226 lung = system: NCI-H226 lung
NCI-H522 lung = system: NCI-H522 lung
SF-268 CNS = system: SF-268 CNS
HCT-15 colon = system: HCT-15 colon
NCI-H460 lung = system: NCI-H460 lung
CCRF-CEM leukemia = system: CCRF-CEM leukemia
SK-MEL-28 melanoma = system: SK-MEL-28 melanoma
TK-10 renal = system: TK-10 renal
EKVX NSCLC = system: EKVX NSCLC
MALME-3M melanoma = system: MALME-3M melanoma
UACC-62 melanoma = system: UACC-62 melanoma
RXF 393 renal = system: RXF 393 renal
HCC-2998 colon = system: HCC-2998 colon

Cc1nc2cc(Nc3nc(Nc4ccc(F)cc4)nc(-c4cccs4)n3)ccc2n1Cc1ccccc1
GI50 (A549 NSCLC): 2.98 µM
TGI (A549 NSCLC): 15.1 µM
GI50 (IGROV1 ovarian): 3.62 µM
TGI (IGROV1 ovarian): 12.9 µM
GI50 (SK-OV-3 ovarian): 33.4 µM
TGI (SK-OV-3 ovarian): > 100 µM
GI50 (HS 578T breast): 3.81 µM
TGI (HS 578T breast): > 100 µM
GI50 (RPMI-8226 leukemia): 2.07 µM
TGI (RPMI-8226 leukemia): 5.91 µM
GI50 (HOP-62 NSCLC): 8.45 µM
TGI (HOP-62 NSCLC): > 100 µM
GI50 (NCI/ADR-RES ovarian): 3.66 µM
TGI (NCI/ADR-RES ovarian): 32.1 µM
GI50 (MCF7 breast): 2.15 µM
TGI (MCF7 breast): 7.91 µM
GI50 (UACC-257 melanoma): 5.42 µM
TGI (UACC-257 melanoma): 30.1 µM
GI50 (HT29 colon): 2.12 µM
TGI (HT29 colon): 4.44 µM
GI50 (OVCAR-4 ovarian): 3.24 µM
TGI (OVCAR-4 ovarian): 34.8 µM
GI50 (A498 renal): 5.41 µM
TGI (A498 renal): 73.3 µM
GI50 (SF-295 CNS): 3.61 µM
TGI (SF-295 CNS): 16.7 µM
GI50 (UO-31 renal): 3.75 µM
TGI (UO-31 renal): 17.5 µM
GI50 (SNB-19 CNS): 5.29 µM
TGI (SNB-19 CNS): > 100 µM
GI50 (KM12 colon): 3.12 µM
TGI (KM12 colon): 16.7 µM
GI50 (HCT-116 colon): 3.35 µM
TGI (HCT-116 colon): 13.3 µM
GI50 (OVCAR-3 ovarian): 4.87 µM
TGI (OVCAR-3 ovarian): 38.1 µM
GI50 (NCI-H23 lung): 5.87 µM
TGI (NCI-H23 lung): 32.7 µM
GI50 (T-47D breast): 2.6 µM
TGI (T-47D breast): 9.33 µM
GI50 (OVCAR-5 ovarian): 9.62 µM
TGI (OVCAR-5 ovarian): 27.3 µM
GI50 (PC-3 prostate): 2.71 µM
TGI (PC-3 prostate): 52.2 µM
GI50 (M14 melanoma): 5.42 µM
TGI (M14 melanoma): 24.6 µM
GI50 (OVCAR-8 ovarian): 3.54 µM
TGI (OVCAR-8 ovarian): 19 µM
GI50 (U251 CNS): 3.13 µM
TGI (U251 CNS): 13.7 µM
GI50 (MDA-MB-231 breast): 3.48 µM
TGI (MDA-MB-231 breast): 16.2 µM
GI50 (SN12C renal): 5.73 µM
TGI (SN12C renal): 58.1 µM
GI50 (SNB-75 CNS): 2.94 µM
TGI (SNB-75 CNS): > 100 µM
GI50 (LOX IMVI melanoma): 2.36 µM
TGI (LOX IMVI melanoma): 5.85 µM
GI50 (SF-539 CNS): 3.27 µM
TGI (SF-539 CNS): 12.9 µM
GI50 (K-562 leukemia): 3.07 µM
TGI (K-562 leukemia): 20.6 µM
GI50 (ACHN renal): 3.86 µM
TGI (ACHN renal): 59.9 µM
GI50 (CAKI-1 renal): 5.45 µM
TGI (CAKI-1 renal): > 100 µM
GI50 (SR leukemia): 2.56 µM
TGI (SR leukemia): 7.44 µM
GI50 (DU-145 prostate): 7.7 µM
TGI (DU-145 prostate): > 100 µM
GI50 (HL-60(TB) leukemia): 2.46 µM
TGI (HL-60(TB) leukemia): 6.5 µM
GI50 (SK-MEL-2 melanoma): 2.36 µM
TGI (SK-MEL-2 melanoma): 5.44 µM
GI50 (SK-MEL-5 melanoma): 4.18 µM
TGI (SK-MEL-5 melanoma): 17.3 µM
GI50 (786-0 renal): 3.07 µM
TGI (786-0 renal): 9.11 µM
GI50 (MOLT-4 leukemia): 2.97 µM
TGI (MOLT-4 leukemia): 9.3 µM
GI50 (BT-549 breast): 15.8 µM
TGI (BT-549 breast): 40.7 µM
GI50 (MDA-MB-435): 3.85 µM
TGI (MDA-MB-435): 35.2 µM
GI50 (SW-620 colon): 4.02 µM
TGI (SW-620 colon): 38.8 µM
GI50 (COLO 205 colon): 3.7 µM
TGI (COLO 205 colon): 12.9 µM
GI50 (NCI-H226 lung): 8.23 µM
TGI (NCI-H226 lung): 36.5 µM
GI50 (NCI-H522 lung): 2.66 µM
TGI (NCI-H522 lung): 9.16 µM
GI50 (SF-268 CNS): 9.74 µM
TGI (SF-268 CNS): > 100 µM
GI50 (HCT-15 colon): 3.11 µM
TGI (HCT-15 colon): 16.3 µM
GI50 (NCI-H460 lung): 3.78 µM
TGI (NCI-H460 lung): 20.4 µM
GI50 (CCRF-CEM leukemia): 2.46 µM
TGI (CCRF-CEM leukemia): 7.21 µM
GI50 (SK-MEL-28 melanoma): 9.47 µM
TGI (SK-MEL-28 melanoma): > 100 µM

CC(C(=O)O)c1cccc(Oc2ccccc2)c1 (configuration not stated)
GI50 (TK-10 renal): > 100 µM
TGI (TK-10 renal): > 100 µM
GI50 (EKVX NSCLC): > 100 µM
TGI (EKVX NSCLC): > 100 µM
GI50 (A549 NSCLC): > 100 µM
TGI (A549 NSCLC): > 100 µM
GI50 (IGROV1 ovarian): > 100 µM
TGI (IGROV1 ovarian): > 100 µM
GI50 (SK-OV-3 ovarian): > 100 µM
TGI (SK-OV-3 ovarian): > 100 µM
GI50 (HS 578T breast): > 100 µM
TGI (HS 578T breast): > 100 µM
GI50 (RPMI-8226 leukemia): > 100 µM
TGI (RPMI-8226 leukemia): > 100 µM
GI50 (HOP-62 NSCLC): > 100 µM
TGI (HOP-62 NSCLC): > 100 µM
GI50 (NCI/ADR-RES ovarian): > 100 µM
TGI (NCI/ADR-RES ovarian): > 100 µM
GI50 (MCF7 breast): > 100 µM
TGI (MCF7 breast): > 100 µM
GI50 (UACC-257 melanoma): > 100 µM
TGI (UACC-257 melanoma): > 100 µM
GI50 (MALME-3M melanoma): > 100 µM
TGI (MALME-3M melanoma): > 100 µM
GI50 (HT29 colon): > 100 µM
TGI (HT29 colon): > 100 µM
GI50 (A498 renal): > 100 µM
TGI (A498 renal): > 100 µM
GI50 (SF-295 CNS): > 100 µM
TGI (SF-295 CNS): > 100 µM
GI50 (UO-31 renal): > 100 µM
TGI (UO-31 renal): > 100 µM
GI50 (SNB-19 CNS): > 100 µM
TGI (SNB-19 CNS): > 100 µM
GI50 (KM12 colon): > 100 µM
TGI (KM12 colon): > 100 µM
GI50 (HCT-116 colon): > 100 µM
TGI (HCT-116 colon): > 100 µM
GI50 (OVCAR-3 ovarian): > 100 µM
TGI (OVCAR-3 ovarian): > 100 µM
GI50 (NCI-H23 lung): > 100 µM
TGI (NCI-H23 lung): > 100 µM
GI50 (T-47D breast): > 100 µM
TGI (T-47D breast): > 100 µM
GI50 (OVCAR-5 ovarian): > 100 µM
TGI (OVCAR-5 ovarian): > 100 µM
GI50 (PC-3 prostate): > 100 µM
TGI (PC-3 prostate): > 100 µM
GI50 (M14 melanoma): > 100 µM
TGI (M14 melanoma): > 100 µM
GI50 (OVCAR-8 ovarian): > 100 µM
TGI (OVCAR-8 ovarian): > 100 µM
GI50 (U251 CNS): > 100 µM
TGI (U251 CNS): > 100 µM
GI50 (MDA-MB-231 breast): > 100 µM
TGI (MDA-MB-231 breast): > 100 µM
GI50 (SN12C renal): > 100 µM
TGI (SN12C renal): > 100 µM
GI50 (SNB-75 CNS): > 100 µM
TGI (SNB-75 CNS): > 100 µM
GI50 (LOX IMVI melanoma): > 100 µM
TGI (LOX IMVI melanoma): > 100 µM
GI50 (SF-539 CNS): > 100 µM
TGI (SF-539 CNS): > 100 µM
GI50 (K-562 leukemia): > 100 µM
TGI (K-562 leukemia): > 100 µM
GI50 (ACHN renal): > 100 µM
TGI (ACHN renal): > 100 µM
GI50 (CAKI-1 renal): > 100 µM
TGI (CAKI-1 renal): > 100 µM
GI50 (SR leukemia): > 100 µM
TGI (SR leukemia): > 100 µM
GI50 (DU-145 prostate): > 100 µM
TGI (DU-145 prostate): > 100 µM
GI50 (HL-60(TB) leukemia): > 100 µM
TGI (HL-60(TB) leukemia): > 100 µM
GI50 (SK-MEL-5 melanoma): > 100 µM
TGI (SK-MEL-5 melanoma): > 100 µM
GI50 (786-0 renal): > 100 µM
TGI (786-0 renal): > 100 µM
GI50 (MOLT-4 leukemia): > 100 µM
TGI (MOLT-4 leukemia): > 100 µM
GI50 (BT-549 breast): > 100 µM
TGI (BT-549 breast): > 100 µM
GI50 (MDA-MB-435): > 100 µM
TGI (MDA-MB-435): > 100 µM
GI50 (UACC-62 melanoma): > 100 µM
TGI (UACC-62 melanoma): > 100 µM
GI50 (SW-620 colon): > 100 µM
TGI (SW-620 colon): > 100 µM
GI50 (COLO 205 colon): > 100 µM
TGI (COLO 205 colon): > 100 µM
GI50 (NCI-H226 lung): > 100 µM
TGI (NCI-H226 lung): > 100 µM
GI50 (RXF 393 renal): > 100 µM
TGI (RXF 393 renal): > 100 µM
GI50 (NCI-H522 lung): > 100 µM
TGI (NCI-H522 lung): > 100 µM
GI50 (HCC-2998 colon): > 100 µM
TGI (HCC-2998 colon): > 100 µM
GI50 (SF-268 CNS): > 100 µM
TGI (SF-268 CNS): > 100 µM
GI50 (HCT-15 colon): > 100 µM
TGI (HCT-15 colon): > 100 µM
GI50 (NCI-H460 lung): > 100 µM
TGI (NCI-H460 lung): > 100 µM
GI50 (CCRF-CEM leukemia): > 100 µM
TGI (CCRF-CEM leukemia): > 100 µM
GI50 (SK-MEL-28 melanoma): > 100 µM
TGI (SK-MEL-28 melanoma): > 100 µM
